# Patent publication US20040259833A1 (priority 1999, published 2004)
# Where two headings read alike, the source gives them in different places.
# Columns and labels:
# [1] = system: bacterial cells expressing an adenine DNA methyltransferase; format: cell-based
# Caulobacter cresentus = test: microbe, parasite or virus in culture; format: cell-based
# [2] = system: Agrobacterium tumefaciens; format: cell-based; conditions: read-out: IC50, cell growth inhibition
# Bacillus subtilis = test: microbe, parasite or virus in culture; format: cell-based
# dam methylase (E. coli) = dam methylase (E. coli) (Escherichia coli, UniProt P0AEE8); format: biochemical; conditions: at 100 μM
# Helicobacter pylori = format: cell-based; conditions: read-out: IC50, cell growth inhibition
# [3] = target: dcm methyltransferase (HhaI) (Haemophilus parahaemolyticus, UniProt P05102); format: biochemical, Hemophilus hemolyticus; conditions: at 500 μM
# [4] = target: adenine DNA methyltransferase (Caulobacter vibrioides (Caulobacter crescentus), UniProt P0CAW2); format: biochemical
# [5] = read-out: IC50, cell growth inhibition
# [6] = Caulobacter, read-out: IC50, Caulobacter cresentus
# [7] = Bacillus subtilis, read-out: IC50, Bacillus subtilis
# dcm methyltransferase (HhaI), sequence (P05102 whole entry): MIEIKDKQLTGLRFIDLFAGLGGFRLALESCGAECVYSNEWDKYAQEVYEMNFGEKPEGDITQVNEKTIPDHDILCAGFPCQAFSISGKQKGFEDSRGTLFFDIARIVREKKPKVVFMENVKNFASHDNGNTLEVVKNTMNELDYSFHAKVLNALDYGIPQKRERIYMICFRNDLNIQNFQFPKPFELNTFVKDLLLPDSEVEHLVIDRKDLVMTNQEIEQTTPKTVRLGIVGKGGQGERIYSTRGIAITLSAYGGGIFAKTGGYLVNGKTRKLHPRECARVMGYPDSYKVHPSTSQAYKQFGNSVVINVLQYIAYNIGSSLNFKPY
# dam methylase (E. coli), sequence (P0AEE8 whole entry): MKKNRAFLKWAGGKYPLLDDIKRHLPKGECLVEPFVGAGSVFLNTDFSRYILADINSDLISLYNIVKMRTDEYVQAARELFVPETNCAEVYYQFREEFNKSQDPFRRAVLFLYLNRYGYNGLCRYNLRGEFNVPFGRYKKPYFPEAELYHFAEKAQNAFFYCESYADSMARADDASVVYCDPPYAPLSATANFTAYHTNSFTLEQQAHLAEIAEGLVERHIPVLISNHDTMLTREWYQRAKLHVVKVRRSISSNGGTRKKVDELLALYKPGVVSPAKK
# adenine DNA methyltransferase, sequence (P0CAW2 whole entry): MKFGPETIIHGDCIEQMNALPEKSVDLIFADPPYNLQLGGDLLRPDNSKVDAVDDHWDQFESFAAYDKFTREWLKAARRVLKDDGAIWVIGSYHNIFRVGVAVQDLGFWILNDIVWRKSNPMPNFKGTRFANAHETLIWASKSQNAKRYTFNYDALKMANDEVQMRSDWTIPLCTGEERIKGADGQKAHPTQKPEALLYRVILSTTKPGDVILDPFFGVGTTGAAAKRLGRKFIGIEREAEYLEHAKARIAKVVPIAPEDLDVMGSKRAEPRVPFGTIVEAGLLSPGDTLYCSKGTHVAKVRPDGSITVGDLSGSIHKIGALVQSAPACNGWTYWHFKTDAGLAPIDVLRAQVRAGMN
compound,measurement,setting,value
c1ccc(B(OCCNc2ncnc3[nH]cnc23)c2ccccc2)cc1,concentration that inhibits cell growth,[1],< 50 µM
6-N-(diphenylborinic ester)-ethyl-9-(2-(2-(2-hydroxyethoxy)ethoxy)ethyl)-adenine [Compound 3d],IC50,Caulobacter cresentus; [5],< 25 µM
same,IC50,[2],< 25 µM
same,IC50,Bacillus subtilis; [5],10 to 50 µM
same,inhibition of dam methylase (E. coli),dam methylase (E. coli),Complete inhibition
same,IC50,Helicobacter pylori,25 to 100 µM
same,inhibition of dcm methyltransferase (HhaI),[3],No inhibition at all
6-N-(diphenylborinic ester)-ethyl-9-(2-(4-morpholinyl)-ethyl)-adenine [Compound 3b],IC50,Caulobacter cresentus; [5],< 25 µM
same,IC50,[2],25 µM
same,IC50,Bacillus subtilis; [5],1 to 10 µM
same,inhibition of dam methylase (E. coli),dam methylase (E. coli),Complete inhibition
same,IC50,Helicobacter pylori,< 25 µM
same,inhibition of dcm methyltransferase (HhaI),[3],No inhibition at all
6-N-(diphenylborinic ester)-ethyl-9-(3-(N-phthaloyl)-aminopropyl)-adenine [Compound 3c],IC50,Caulobacter cresentus; [5],< 25 µM
same,IC50,[2],25 µM
same,IC50,Bacillus subtilis; [5],1 to 10 µM
same,inhibition of dam methylase (E. coli),dam methylase (E. coli),Complete inhibition
same,IC50,Helicobacter pylori,25 to 100 µM
same,inhibition of dcm methyltransferase (HhaI),[3],No inhibition at all
6-N-(diphenylborinic ester)-ethyl-9-(ethyl-2-acrylate)-methyl-adenine [Compound 3e],IC50,Caulobacter cresentus; [5],< 25 µM
same,IC50,[2],< 25 µM
same,inhibition of dam methylase (E. coli),dam methylase (E. coli),Complete inhibition
same,IC50,Helicobacter pylori,25 µM
same,inhibition of dcm methyltransferase (HhaI),[3],No inhibition at all
6-N-(diphenylborinic ester)-ethyl-adenine [Compound 3a],IC50,Caulobacter cresentus; [5],< 25 µM
same,IC50,[2],> 100 µM
same,IC50,Bacillus subtilis; [5],10 to 50 µM
same,inhibition of dam methylase (E. coli),dam methylase (E. coli),Complete inhibition
same,IC50,Helicobacter pylori,< 25 µM
same,inhibition of dcm methyltransferase (HhaI),[3],No inhibition at all
"Fc1ccc([B-]2(c3ccc(F)cc3)Oc3cccc4ccc[n+]2c34)cc1 [(1), di-(p-fluorophenyl)borinic acid 8-hydroxyquiniline ester]",IC50,Caulobacter cresentus; [6],23 µM
same,IC50,Bacillus subtilis; [7],14 µM
"Clc1ccc([B-]2(c3ccc(Cl)cc3)Oc3cccc4ccc[n+]2c34)cc1 [(2), di-(p-chlorophenyl)borinic acid 8-hydroxyquiniline ester]",IC50,Caulobacter cresentus; [6],16 µM
same,IC50,Bacillus subtilis; [7],7 µM
"c1ccc([B-]2(c3ccccc3)Oc3cccc4ccc[n+]2c34)cc1 [(3), diphenylborinic acid 8-hydroxyquiniline ester]",IC50,Caulobacter cresentus; [6],> 100 µM
"Fc1ccc([B-]2(c3ccc(F)cc3)[NH2+]CCO2)cc1 [(4), di-(p-fluorophenyl)borinic acid ethanolamine ester]",IC50,Caulobacter cresentus; [6],85 µM
same,IC50,Bacillus subtilis; [7],34 µM
"Clc1ccc([B-]2(c3ccc(Cl)cc3)[NH2+]CCO2)cc1 [(5), di-(p-chlorophenyl)borinic acid ethanolamine ester]",IC50,Caulobacter cresentus; [6],17 µM
same,IC50,Bacillus subtilis; [7],32 µM
NCCNc1ncnc2[nH]cnc12 [compound (8)],inhibitory activity,[4],relatively low (mM range)
